From patent US20060234237A1 (priority 2004, published 2006) come the findings set out here.

Where a name gives a salt, the structure may show the parent alone.

For one test, the system named is LS174T. Description: In vitro cytotoxicity MTS assay. Type of test: cell-based. Particulars: Homo sapiens, 72 hours, mean of 2 to 5 determinations, asterisk = sensitive. Background: Tetrazolium assays rely on reduction of a dye to a coloured formazan, in cell work by metabolically active cells.
In a further test the test system is HCT116S542. Description: In vitro cytotoxicity MTS assay. Particulars: Homo sapiens, 72 hours, mean of 2 to 5 determinations. Format: cell-based.
The next test relates to SW480. Description: In vitro cytotoxicity MTS assay.
The next test deals with SW837. Kind of test: In vitro cytotoxicity MTS assay. As to conditions: Homo sapiens, 72 hours, mean of 2 to 5 determinations. Format: cell-based.
Another test concerns LOVO. Description: In vitro cytotoxicity MTS assay. Particulars: Homo sapiens, 72 hours, mean of 2 to 5 determinations, asterisk = sensitive. Format: cell-based.
Another test relates to Caco2. Description: In vitro cytotoxicity MTS assay. Type of test: cell-based. Particulars: Homo sapiens, Caco-2, 72 hours, mean of 2 to 5 determinations, asterisk = sensitive.
The test system of a further test is T84. Description: In vitro cytotoxicity MTS assay. Type of test: cell-based. As to conditions: Homo sapiens, 72 hours, mean of 2 to 5 determinations.
The next test deals with CX-1. Description: In vitro cytotoxicity MTS assay. Format: cell-based. As to conditions: Homo sapiens, 72 hours, mean of 2 to 5 determinations.
A further test deals with Colo-201. Kind of test: In vitro cytotoxicity MTS assay. Particulars: Homo sapiens, 72 hours, mean of 2 to 5 determinations. Format: cell-based.
The test system of a further test is MIP. Description: In vitro cytotoxicity MTS assay. Format: cell-based. As to conditions: Homo sapiens, 72 hours, mean of 2 to 5 determinations.
The test system of the next test is SW1417. Kind of test: In vitro cytotoxicity MTS assay. Particulars: Homo sapiens, 72 hours, mean of 2 to 5 determinations. Type of test: cell-based.
A further test relates to Colo320HSR. Description: In vitro cytotoxicity MTS assay. Format: cell-based. As to conditions: Homo sapiens, COLO-320-HSR, 72 hours, mean of 2 to 5 determinations.
Another test relates to Colo-205. Kind of test: In vitro cytotoxicity MTS assay. As to conditions: Homo sapiens, 72 hours, mean of 2 to 5 determinations. Format: cell-based.
The next test has as its system SW403. Kind of test: In vitro cytotoxicity MTS assay. Format: cell-based. Particulars: Homo sapiens, SW-403, 72 hours, mean of 2 to 5 determinations, asterisk = sensitive.
In another test the test system is Sk-Co-1. Kind of test: In vitro cytotoxicity MTS assay. As to conditions: Homo sapiens, 72 hours, mean of 2 to 5 determinations. Format: cell-based.
A further test relates to CCD_33C0. Description: In vitro cytotoxicity MTS assay. As to conditions: Homo sapiens, 72 hours, mean of 2 to 5 determinations, asterisk = sensitive. Type of test: cell-based.
The subject of a further test is HCT8. Description: In vitro cytotoxicity MTS assay. Format: cell-based. As to conditions: Homo sapiens, HCT-8, 72 hours, mean of 2 to 5 determinations.
For another test, the system named is Colo320DM. Description: In vitro cytotoxicity MTS assay.
The test system of another test is HT-29. Kind of test: In vitro cytotoxicity MTS assay. Format: cell-based. As to conditions: Homo sapiens, 72 hours, mean of 2 to 5 determinations.
The next test has as its system CCD18Co. Description: In vitro cytotoxicity MTS assay. Format: cell-based. Particulars: Homo sapiens, CCD-18Co, 72 hours, mean of 2 to 5 determinations.
A further test relates to HCT116. Description: In vitro cytotoxicity MTS assay. Type of test: cell-based. Particulars: Homo sapiens, HCT-116, 72 hours, mean of 2 to 5 determinations.
The subject of the next test is SW620. Kind of test: In vitro cytotoxicity MTS assay. Type of test: cell-based. As to conditions: Homo sapiens, SW-620, 72 hours, mean of 2 to 5 determinations.
In test [1] the test system is CACO2 colon cancer cell line. As to conditions: serum starved, 20 ng/ml EGF, 0.5, 6 and 18 hours, vs media alone. On the procedure:
(§1) Control cells were treated with media alone. The expression profiling was performed, and data was analyzed using GeneChip® Expression Analysis software MAS 5.0 (Affymetrix, Santa Clara, Calif.).
(§2) The colon cells were grown using standard cell culture conditions: RPMI 1640 supplemented to contain 10% fetal bovine serum, 100 IU/ml penicillin, […] streptomycin, 2 mM L-glutamine and 10 mM Hepes (all from GibcoBRL, Rockville, Md.). RNA was isolated from 50-70% confluent cells or drug-treated cells using the RNeasy™ kits commercially available from Qiagen (Valencia, Calif.). Quality of the RNA was checked by measuring the 28s:18s ribosomal RNA ratio using Agilent 2100 bioanalyzer (Agilent, Technologies, Rockville, Md.). Concentration of total RNA was determined spectrophotometrically. 10 μg of total RNA from each cell line was used to prepare biotinylated probe according to the Affymetrix Genechip® Expression Analysis Technical Manual, 2001. Targets were hybridized to Affymetrix high density oligonucleotide array human HG-U133 set chips (Affymetrix, Santa Clara, Calif.). Arrays were then washed, and stained using the GeneChip Fluidics station according to the manufacture's instructions. The HG-U133 set consisting of two GeneChip® arrays contains nearly 45,000 probe sets representing more than 39,000 transcripts derived from approximately 33,000 well-substantiated human genes.
(§3) For the EGF induction studies, the colon cell line CACO2 and the lung cancer H292 cell line were washed 2×PBS, and the media was changed to RPMI without serum. The next day the cells were treated with 20 ng/ml EGF, and eventually lysed for RNA isolation 0.5, 6 and 18 hours post treatment. Gene expression was profiled as described below.

The subject of test [2] is H292 lung cancer cell line. As to conditions: serum starved, 20 ng/ml EGF, 0.5, 6 and 18 hours, vs media alone. On the procedure: as §1, §2, §3

Description for Colo320DM: (§4) The IC50 for each cell line was assessed by MTS assays. The average IC50 values along with standard deviations were calculated from two to five individual determinations for each cell line. […] The IC50 unit is μM.
(§5) Cytotoxicity was assessed in cells by MTS (3-(4,5-dimethylthiazol-2-yl)-5-(3-carboxymethoxyphenyl)-2-(4-sulphenyl)-2H-tetrazolium, inner salt) assay (T. L. Riss et al., 1992, Mol. Biol. Cell, 3 (Suppl.): 184a).
(§6) To carry out the assays, the colon cells were plated at 4,000 cell/well in 96 well microtiter plates and 24 hours later serial diluted drugs were added. […] The cells were incubated at 37° C. for 72 hours at which time the tetrazolium dye MTS (333 μg/ml final concentration) in combination with the electron coupling agent phenazine methosulfate (25 μM final concentration) was added. A dehydrogenase enzyme in live cells reduces the MTS to a form that absorbs light at 492 nm that can be quantified spectrophotometrically. The greater the absorbency, the greater the number of live cells. The results were expressed as an IC50, which is the drug concentration required to inhibit cell proliferation (i.e., absorbance at 450 mm) to 50% of that of untreated control cells. The mean IC50 and standard deviation (SD) from multiple tests for each cell line were calculated.
Description for SW480: as §4, §5, §6

What is called IC50 is the concentration that gives 50% inhibition. Higher therefore signals a need for much substance. `C#Cc1cccc(Nc2ncnc3cc(OCCOC)c(OCCOC)cc23)c1` [BMS-461453, erlotinib HCl]: the IC50 is 3.5 µM in the test with LS174T; above 10 µM in the test with HCT116S542; above 10 µM with SW480 (Homo sapiens, SW480, 72 h); 7.2 µM in the test with SW837; 2.3 µM with LOVO; 5.5 µM in the test with Caco2. For the same compound, the IC50 was above 10 µM in the test with T84; above 10 µM in the test with CX-1; above 10 µM in the test on Colo-201; 9.7 µM with MIP; above 10 µM with SW1417; above 10 µM in the test with Colo320HSR. Besides, the IC50 with Colo-205 was above 10 µM; in the test on SW403, 5.7 µM; with Sk-Co-1 it was 9 µM; with CCD_33C0, 2 µM; in the test on HCT8 it was above 10 µM; with Colo320DM (Homo sapiens, COLO 320DM, 72 h), above 10 µM. Also, the IC50 is above 10 µM in the test with HT-29, 7.1 µM in the test with CCD18Co, above 10 µM with HCT116 and above 10 µM with SW620. Also, the “Sensitivity of cell line to the EGFR inhibitor” value in the test with SW480 (SW480, expressing EGFR) is listed as “insensitive”; in the test with Colo320DM (COLO320_DM, does not express EGFR), “resistant”.
With epidermal growth factor [EGFR], the “Expression of EphA1 (EPHA1) stimulated” value in [1] is listed as “Expression stimulated 2 fold by”. In test [2], the “Expression of 3-hydroxy-3-methylglutaryl-Coenzyme A synthase 2 stimulated” value was “Expression stimulated 3 fold by”; the “Expression of BTG family, member 2 (BTG2) stimulated” value was “Expression stimulated 2 fold by”; the “Expression of cystic fibrosis transmembrane conductance regulator (CFTR) stimulated” value is recorded as “Expression stimulated 2 fold by”; the “Expression of prostaglandin G/H synthase and cyclooxygenase stimulated” value is on record as “Expression stimulated 6 fold by”. Further, in [2], the “Expression of serine (or cysteine) proteinase inhibitor, clade B (ovalbumin), member 5 (SERPINB5) stimulated” value is reported as “Expression stimulated 2 fold by”.
